Assay results reported in US9713598B2, “Treatment of insulin resistance associated with prolonged physical inactivity” (ABBOTT LABORATORIES, priority 2013, dated 2017).
Values joined by “and” are separate entries in the source; they are usually repeats but may differ in a detail not shown here. Equal entries are not always repeated.

Key:
Assay type in all cases: in vivo
Leptin = test: 10-day bed rest study in healthy elderly subjects: circulating Leptin (RBM Human Discovery map, serum)
Excerpt: (§1) The following inclusion criteria were verified at screening: male or female ≧60 to ≦79 years of age; body mass index (BMI) ≧20 but ≦35; ambulatory with a Short Performance Physical Battery (SPPB) score of ≧9 (fully functional with no mobility limitations); compliance with prescribed activity level. Exclusion criteria ruled out subjects who had undergone recent major surgery, had active malignancy (exception basal or squamous cell skin carcinoma or carcinoma in situ of the uterine cervix); history of Deep Vein Thrombosis (DVT) or other hypercoagulation disorders; refractory anemia; history of diabetes or fasting blood glucose value >126 mg/dL; presence of partial or full artificial limb; kidney disease or serum creatinine >1.4 mg/dL; evidence of cardiovascular disease assessed during resting or exercise EKG; untreated hypothyroidism; liver disease; chronic or acute GI disease; uncontrolled severe diarrhea, nausea or vomiting; were actively pursuing weight loss; were enrolled in other clinical trials; could not refrain from smoking over the bed rest study period or could not discontinue anticoagulant therapy over bed rest period. Potential subjects were also excluded if they were taking any medications known to affect protein metabolism (e.g., progestational agents, steroids, growth hormone, dronabinol, marijuana, HMB, free amino acid supplements, dietary supplements to aid weight loss).
(§2) The 24 healthy subjects initially involved in the study were randomized into two groups. Subjects in the treatment group received two β-hydroxy-β-methylbutyrate (HMB) sachets containing 1.5 grams Ca-HMB (TSI, Salt Lake City, Utah), 4 grams maltodextrin and 200 mg Calcium with additional sweetener and flavoring groups. Subjects in the control group received two control sachets that were identical to the HMB sachets with the exclusion Ca-HMB. This study was a double-blinded study. Neither the investigators nor the subjects were informed of the identity of any of the study products during the clinical portion of the study. Subjects were instructed to consume twice daily by mixing each sachet into a non-caloric, non-caffeinated, non-carbonated, non-milk-based beverage of their choice. Treatment with HMB or Control was initiated 5 days prior to bed rest and was continued until the end of the rehabilitation period.
For diet stabilization over the pre-bed rest and bed rest period, subjects were fed a metabolically controlled diet providing the RDA for protein intake (0.8 g protein/kg body weight per day). […]
(§3) After a diet stabilization of 5 days (ambulatory period), subjects remained in bed continuously for 10 days. […] Subjects were constantly monitored by nursing staff and received a daily physical examination by the study physician. […]

C-peptide = test: 10-day bed rest study in healthy elderly subjects: circulating C-peptide (RBM Human Discovery map, serum)
Excerpt: as §1, §2
(§4) For diet stabilization over the pre-bed rest and bed rest period, subjects were fed a metabolically controlled diet providing the RDA for protein intake (0.8 g protein/kg body weight per day). Total calorie needs were estimated using the Harris-Benedict equation for resting energy expenditure according to the following equation: For women=[655+(9.56×body weight in kg)+(1.85×height in cm)−(4.68×age in years)]×AF, or, For men=[66+(13.7×body weight in kg)+(5×height in cm)−([…]]×AF, where AF=activity factor of 1.6 for the ambulatory and 1.35 for the bed rest periods. Given the total calorie and protein intakes, the remainder of the diet was manipulated to keep the non-protein calories at about 60% from carbohydrates and 40% from fat. Water was provided ad libitum.
as §3, with “days. While confined to bed rest, subjects were allowed to use the bedside commode for urination or were taken in a wheelchair for toileting.” for “days.”

[1] = tested on: Insulin-like Growth Factor-Binding Protein 2 (IGFBP-2); test: 10-day bed rest study in healthy elderly subjects: circulating IGFBP-2 (RBM Human Discovery map, serum)
Excerpt: as §1, §2, §4
as §3, with “days. While confined to bed rest, subjects were allowed to use the bedside commode for urination or were taken in a wheelchair for toileting.” for “days.”

[2] = HMB Treatment (n = 10), end of 10 days of bed rest
[3] = HMB Treatment (n = 10), two sachets of 1.5 g Ca-HMB daily, started 5 days prior to bed rest, fasted blood, Day 1 of bed rest

Question: How did the “Leptin, Post-bed rest Mean” value (Leptin; [2]) turn out when `CC(C)(O)CC(=O)O` [HMB, β-hydroxy-β-methylbutyric acid] was run?
Answer: 19.31 ng/mL

Question: And the “Leptin, Change” value (Leptin; HMB Treatment (n = 10), pre- to post-bed rest, 10 days, control change 5.06 ± 1.88)?
Answer: 4.11 ng/mL and 4.11 ± 1.89 ng/mL

Question: What about the “Leptin, Pre-bed rest Mean” value (Leptin; [3]) of the same compound?
Answer: 15.20 ng/mL

Question: And the “effect on bed-rest change in blood levels of Leptin versus untreated control subjects” value (Leptin; prolonged bed rest, 10 days)?
Answer: reduces or attenuates the increase in blood levels of Leptin

Question: And the “percent increase in blood levels of C-peptide” value (C-peptide; 10 HMB treated subjects, after 10 days of bed rest, control 43.0%)?
Answer: 29.59%

Question: What about the “C-peptide, Post-bed rest Mean” value (C-peptide; [2]) of the same compound?
Answer: 1.69 ng/mL

Question: And the “C-peptide, Change” value (C-peptide; HMB Treatment (n = 10), pre- to post-bed rest, 10 days, control change 0.54 ± 0.22)?
Answer: 0.28 ng/mL and 0.28 ± 0.08 ng/mL

Question: And the “C-peptide, Pre-bed rest Mean” value (C-peptide; [3])?
Answer: 1.41 ng/mL

Question: What about the “effect on bed-rest change in blood levels of C-peptide versus untreated control subjects” value (C-peptide; prolonged bed rest, 10 days) of the same compound?
Answer: reduces or attenuates the increase in blood levels of C-peptide

Question: And the “percent change in blood levels of IGFBP-2” value ([1]; 10 HMB treated subjects, after 10 days of bed rest, control −24.56%)?
Answer: −15.63%

Question: And the “IGFBP-2, Post-bed rest Mean” value [1, 2]?
Answer: 106.97 ng/mL

Question: And the “IGFBP-2, Change” value ([1]; HMB Treatment (n = 10), pre- to post-bed rest, 10 days, control change −30.54 ± 13.64)?
Answer: -20.89 ng/mL and -20.89 ± 6.84 ng/mL

Question: What about the “IGFBP-2, Pre-bed rest Mean” value [1, 3] of the same compound?
Answer: 127.86 ng/mL

Question: What about the “effect on bed-rest change in blood levels of IGFBP-2 versus control subjects” value ([1]; prolonged bed rest, 10 days) of the same compound?
Answer: reduces or attenuates the decrease in blood levels of IGFBP-2
